Numbers after ± are expanded uncertainties.
Legend:
[1] = xn = mol fraction of the nth substance listed; conditions: 101 kPa, Liquid; for speed of sound: Sing-around technique in a fixed-path interferometer; for mass density: Vibrating tube method
[2] = refractive index (Na D-line) (dimensionless); xn = mol fraction of the nth substance listed; conditions: 101 kPa, Liquid, Standard Abbe refractometry

Compound `CCCCCC` [hexane] + CCOC(C)=O has a speed of sound ([1]; 293.15 K, x1 = 1) of 1100 ± 2 m/s, a mass density ([1]; 293.15 K, x1 = 1) of 659.5 ± 0.3 kg/m3 and a speed of sound ([1]; 298.15 K, x1 = 1) of 1078 ± 2 m/s. It also gave a mass density ([1]; 298.15 K, x1 = 1) of 654.9 ± 0.3 kg/m3, a speed of sound ([1]; 303.15 K, x1 = 1) of 1055 ± 2 m/s and a mass density ([1]; 303.15 K, x1 = 1) of 650.4 ± 0.3 kg/m3. It also gave a refractive index ([2]; 293.15 K, x1 = 1) of 1.37495 ± 0.00067, a refractive index ([2]; 298.15 K, x1 = 1) of 1.37217 ± 0.00067 and a refractive index ([2]; 303.15 K, x1 = 1) of 1.36936 ± 0.00067.
Compound `CCOC(C)=O` [ethyl acetate] + CCCCCCn1cc[n+](C)c1.F[P-](F)(F)(F)(F)F has a speed of sound ([1]; 293.15 K, x2 = 0) of 1162 ± 1 m/s, a mass density ([1]; 293.15 K, x2 = 0) of 900.5 ± 0.1 kg/m3 and a speed of sound ([1]; 298.15 K, x2 = 0) of 1141 ± 1 m/s. For the same compound, the mass density ([1]; 298.15 K, x2 = 0) was 894.4 ± 0.1 kg/m3, the speed of sound ([1]; 303.15 K, x2 = 0) was 1111 ± 1 m/s and the mass density ([1]; 303.15 K, x2 = 0) was 888.2 ± 0.1 kg/m3. It also gave a refractive index ([2]; 293.15 K, x2 = 0) of 1.37241 ± 0.00061, a refractive index ([2]; 298.15 K, x2 = 0) of 1.36977 ± 0.00061 and a refractive index ([2]; 303.15 K, x2 = 0) of 1.36712 ± 0.00062.

From the NIST ThermoML archive (doi:10.1021/je800077r)
